Experimental data from ChEMBL document CHEMBL4831556, “Discovery of a Novel Potent and Selective Calcium Release-Activated Calcium Channel Inhibitor: 2,6-Difluoro-N-(2'-methyl-3'-(4-methyl-5-oxo-4,5-dihydro-1,3,4-oxadiazol-2-yl)-[1,1'-biphenyl]-4-yl)benzamide. Structure-Activity Relationship and Preclinical Characterization” (J Med Chem, 2021).
Values joined by “and” are separate entries in the source; they are usually repeats but may differ in a detail not shown here. Equal entries are not always repeated. Blank lines part the entries; values can stand above or below the compound they belong to.

Columns and labels:
[1] = Metabolic stability in mouse liver microsomes preincubated for 5 mins followed by NADPH addition and measured upto 30 mins by LC-MS/MS analysis; assay type: ADME, Microsome; conditions: 0.5 h, time <=35 min
[2] = AUClast in Lewis rat at 10 mg/kg, po measured upto 24 hrs by LC-MS/MS analysis; assay type: ADME, organism-based; parameters: route oral, dose 10 mg/kg, time <=24; conditions: in vivo
[3] = AUClast in BALB/c mouse at 1 mg/kg, iv measured upto 24 hrs by LC-MS/MS analysis; assay type: ADME, organism-based; parameters: route intravenous, dose 1 mg/kg, time <=24; conditions: in vivo
[4] = AUClast in BALB/c mouse at 10 mg/kg, po measured upto 24 hrs by LC-MS/MS analysis; assay type: ADME, organism-based; parameters: route oral, dose 10 mg/kg, time <=24; conditions: in vivo
[5] = Cmax in BALB/c mouse at 10 mg/kg, po measured upto 24 hrs by LC-MS/MS analysis; assay type: ADME, organism-based; parameters: route oral, dose 10 mg/kg, time <=24; conditions: in vivo
[6] = Tmax in BALB/c mouse at 1 mg/kg, iv measured upto 24 hrs by LC-MS/MS analysis; assay type: ADME, organism-based; conditions: in vivo
[7] = Tmax in BALB/c mouse at 10 mg/kg, po measured upto 24 hrs by LC-MS/MS analysis; assay type: ADME, organism-based; conditions: in vivo
[8] = Volume of distribution at steady state in BALB/c mouse at 1 mg/kg, iv measured upto 24 hrs by LC-MS/MS analysis; assay type: ADME, organism-based; conditions: in vivo, read-out: Vdss
[9] = Oral bioavailability in BALB/c mouse at 10 mg/kg measured upto 24 hrs by LC-MS/MS analysis; assay type: ADME, organism-based; conditions: in vivo
[10] = Metabolic stability in monkey liver microsomes preincubated for 5 mins followed by NADPH addition and measured upto 30 mins by LC-MS/MS analysis; assay type: ADME, Macaca mulatta, Microsome; conditions: rhesus monkey, 0.5 h, time <=35 min
[11] = Apparent permeability across basolateral to apical side in human Caco-2 cells at 5 uM measured upto 120 mins in orbital shaker; assay type: ADME, cell-based
Cytochrome P450 2E1 = Cytochrome P450 2E1 (Homo sapiens, UniProt P05181); experiment: Inhibition of CYP2E1 in human liver microsomes at 10 uM by LC-MS/MS analysis; assay type: ADME
[12] = Tmax in BALB/c mouse model of mBSA-induced delayed type hypersensitivity at 1 mg/kg, po administered twice daily for 7 days followed by mBSA challenge and measured after 24 hrs; assay type: ADME, organism-based; conditions: in vivo, time 8 day
[13] = Tmax in BALB/c mouse model of mBSA-induced delayed type hypersensitivity at 10 mg/kg, po administered twice daily for 7 days followed by mBSA challenge and measured after 24 hrs; assay type: ADME, organism-based; conditions: in vivo, time 8 day
[14] = Cmax in BALB/c mouse model of mBSA-induced delayed type hypersensitivity at 1 mg/kg, po administered twice daily for 7 days followed by mBSA challenge and measured after 24 hrs; assay type: ADME, organism-based; parameters: route oral, time 8 day, dose 1 mg/kg; conditions: in vivo
[15] = Cmax in BALB/c mouse model of mBSA-induced delayed type hypersensitivity at 10 mg/kg, po administered twice daily for 7 days followed by mBSA challenge and measured after 24 hrs; assay type: ADME, organism-based; parameters: route oral, dose 10 mg/kg, time 8 day; conditions: in vivo
[16] = AUClast in BALB/c mouse model of mBSA-induced delayed type hypersensitivity at 1 mg/kg, po administered twice daily for 7 days followed by mBSA challenge and measured after 24 hrs; assay type: ADME, organism-based; parameters: route oral, dose 1 mg/kg, time 8 day; conditions: in vivo
[17] = AUClast in BALB/c mouse model of mBSA-induced delayed type hypersensitivity at 3 mg/kg, po administered twice daily for 7 days followed by mBSA challenge and measured after 24 hrs; assay type: ADME, organism-based; parameters: route oral, time 8 day, dose 3 mg/kg; conditions: in vivo
[18] = Tmax in CFA-induced rheumatoid arthritis Lewis rat model at 0.3 mg/kg, po administered once daily for 15 days; assay type: ADME, organism-based; conditions: in vivo, time 15 day
[19] = Tmax in CFA-induced rheumatoid arthritis Lewis rat model at 3 mg/kg, po administered once daily for 15 days; assay type: ADME, organism-based; conditions: in vivo, time 15 day
[20] = Cmax in CFA-induced rheumatoid arthritis Lewis rat model at 0.3 mg/kg, po administered once daily for 15 days; assay type: ADME, organism-based; parameters: route oral, dose 0.3 mg/kg, time 15 day; conditions: in vivo
[21] = Cmax in CFA-induced rheumatoid arthritis Lewis rat model at 1 mg/kg, po administered once daily for 15 days; assay type: ADME, organism-based; parameters: route oral, dose 1 mg/kg, time 15 day; conditions: in vivo
[22] = Cmax in CFA-induced rheumatoid arthritis Lewis rat model at 3 mg/kg, po administered once daily for 15 days; assay type: ADME, organism-based; parameters: route oral, time 15 day, dose 3 mg/kg; conditions: in vivo
[23] = AUClast in CFA-induced rheumatoid arthritis Lewis rat model at 0.3 mg/kg, po administered once daily for 15 days; assay type: ADME, organism-based; parameters: route oral, time 15 day, dose 0.3 mg/kg; conditions: in vivo
[24] = AUClast in CFA-induced rheumatoid arthritis Lewis rat model at 1 mg/kg, po administered once daily for 15 days; assay type: ADME, organism-based; parameters: route oral, dose 1 mg/kg, time 15 day; conditions: in vivo
[25] = AUClast in CFA-induced rheumatoid arthritis Lewis rat model at 3 mg/kg, po administered once daily for 15 days; assay type: ADME, organism-based; parameters: route oral, time 15 day, dose 3 mg/kg; conditions: in vivo
[26] = Tmax in collagen-induced rheumatoid arthritis DBA/1J mouse model at 3 mg/kg, po administered twice daily for 15 days; assay type: ADME, organism-based; conditions: in vivo, time 15 day
[27] = Tmax in collagen-induced rheumatoid arthritis DBA/1J mouse model at 3 mg/kg, po administered twice daily for 15 days in presence of 0.75 mg/kg of methotrexate; assay type: ADME, organism-based; conditions: in vivo, time 15 day
[28] = Cmax in collagen-induced rheumatoid arthritis DBA/1J mouse model at 3 mg/kg, po administered twice daily for 15 days in presence of 0.75 mg/kg of methotrexate; assay type: ADME, organism-based; parameters: route oral, dose 3 mg/kg, time 15 day; conditions: in vivo
[29] = AUClast in collagen-induced rheumatoid arthritis DBA/1J mouse model at 3 mg/kg, po administered twice daily for 15 days; assay type: ADME, organism-based; parameters: route oral, dose 3 mg/kg, time 15 day; conditions: in vivo
[30] = AUClast in collagen-induced rheumatoid arthritis DBA/1J mouse model at 3 mg/kg, po administered twice daily for 15 days in presence of 0.75 mg/kg of methotrexate; assay type: ADME, organism-based; parameters: route oral, dose 3 mg/kg, time 15 day; conditions: in vivo
ORAI1/STIM1 = ORAI1/STIM1 (Homo sapiens, UniProt Q13586+Q96D31); experiment: Inhibition of Orai1/STIM1 (unknown origin) expressed in HEK293 cells assessed as reduction in Ca2+-release activated Ca2+ entry current by manual patch clamp based electrophysiological method; assay type: cell-based
[31] = target: Voltage-gated inwardly rectifying potassium channel KCNH2 (Homo sapiens, UniProt Q12809); experiment: Inhibition of human ERG by FLIPR TETRA method
[32] = Toxicity in mouse assessed as maximum tolerated dose; conditions: in vivo
[33] = Toxicity in rat assessed as minimum effective dose; conditions: in vivo
[34] = Cmax in rat at 1 mg/kg/day; assay type: ADME, organism-based; parameters: dose 1 mg/kg/day; conditions: in vivo
[35] = AUClast in rat at 1 mg/kg/day; assay type: ADME, organism-based; parameters: time 0 - last, dose 1 mg/kg/day; conditions: in vivo
[36] = Toxicity in human assessed as minimum effective dose
[37] = Cmax in human at […] measured on day 14; assay type: ADME, organism-based; parameters: time 14 day; conditions: in vivo
[38] = Cmax in rat at 60 mg/kg/day after 2 weeks; assay type: ADME, organism-based; parameters: time 2 weeks, dose 60 mg/kg/day; conditions: in vivo
[39] = AUC(0 to t) in rat at 60 mg/kg/day after 2 weeks; assay type: ADME, organism-based; parameters: dose 60 mg/kg/day, time 2 weeks; conditions: in vivo
[40] = Cmax in rat at 60 mg/kg/day after 13 weeks; assay type: ADME, organism-based; parameters: time 13 weeks, dose 60 mg/kg/day; conditions: in vivo
Tumor necrosis factor = Tumor necrosis factor (Homo sapiens, UniProt P01375); experiment: Inhibition of TNF-alpha in thapsigargin stimulated human whole blood; assay type: tissue-based
[41] = Cmax in human whole blood at 160 mg, qd; assay type: ADME, tissue-based; parameters: dose 160 mg
[42] = Trough concentration in human whole blood at 160 mg, qd; assay type: ADME, tissue-based; conditions: read-out: Cmin
[43] = Cmax in human whole blood at 80 mg, bid; assay type: ADME, tissue-based; parameters: dose 80 mg
[44] = Cmax in human whole blood at 80 mg, qd; assay type: ADME, tissue-based; parameters: dose 80 mg
[45] = Trough concentration in human whole blood at 80 mg, qd; assay type: ADME, tissue-based; conditions: read-out: Cmin
[46] = Half life in Lewis rat at 10 mg/kg, po measured upto 24 hrs by LC-MS/MS analysis; assay type: ADME, organism-based; conditions: in vivo

Chain of Cytochrome P450 2E1 (P05181 whole entry): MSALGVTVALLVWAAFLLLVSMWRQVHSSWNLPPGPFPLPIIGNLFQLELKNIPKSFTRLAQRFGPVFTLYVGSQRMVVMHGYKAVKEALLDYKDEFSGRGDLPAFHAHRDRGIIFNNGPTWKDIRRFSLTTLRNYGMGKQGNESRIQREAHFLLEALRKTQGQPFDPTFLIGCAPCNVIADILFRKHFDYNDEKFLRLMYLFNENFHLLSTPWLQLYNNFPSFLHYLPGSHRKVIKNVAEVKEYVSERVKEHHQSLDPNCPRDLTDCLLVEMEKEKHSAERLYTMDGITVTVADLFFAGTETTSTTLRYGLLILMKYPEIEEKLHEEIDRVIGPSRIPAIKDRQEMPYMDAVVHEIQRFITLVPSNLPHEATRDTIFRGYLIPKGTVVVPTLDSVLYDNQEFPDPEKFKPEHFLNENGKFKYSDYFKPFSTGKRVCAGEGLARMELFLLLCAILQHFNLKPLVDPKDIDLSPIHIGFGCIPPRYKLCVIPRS
Chain of Voltage-gated inwardly rectifying potassium channel KCNH2 (Q12809 whole entry): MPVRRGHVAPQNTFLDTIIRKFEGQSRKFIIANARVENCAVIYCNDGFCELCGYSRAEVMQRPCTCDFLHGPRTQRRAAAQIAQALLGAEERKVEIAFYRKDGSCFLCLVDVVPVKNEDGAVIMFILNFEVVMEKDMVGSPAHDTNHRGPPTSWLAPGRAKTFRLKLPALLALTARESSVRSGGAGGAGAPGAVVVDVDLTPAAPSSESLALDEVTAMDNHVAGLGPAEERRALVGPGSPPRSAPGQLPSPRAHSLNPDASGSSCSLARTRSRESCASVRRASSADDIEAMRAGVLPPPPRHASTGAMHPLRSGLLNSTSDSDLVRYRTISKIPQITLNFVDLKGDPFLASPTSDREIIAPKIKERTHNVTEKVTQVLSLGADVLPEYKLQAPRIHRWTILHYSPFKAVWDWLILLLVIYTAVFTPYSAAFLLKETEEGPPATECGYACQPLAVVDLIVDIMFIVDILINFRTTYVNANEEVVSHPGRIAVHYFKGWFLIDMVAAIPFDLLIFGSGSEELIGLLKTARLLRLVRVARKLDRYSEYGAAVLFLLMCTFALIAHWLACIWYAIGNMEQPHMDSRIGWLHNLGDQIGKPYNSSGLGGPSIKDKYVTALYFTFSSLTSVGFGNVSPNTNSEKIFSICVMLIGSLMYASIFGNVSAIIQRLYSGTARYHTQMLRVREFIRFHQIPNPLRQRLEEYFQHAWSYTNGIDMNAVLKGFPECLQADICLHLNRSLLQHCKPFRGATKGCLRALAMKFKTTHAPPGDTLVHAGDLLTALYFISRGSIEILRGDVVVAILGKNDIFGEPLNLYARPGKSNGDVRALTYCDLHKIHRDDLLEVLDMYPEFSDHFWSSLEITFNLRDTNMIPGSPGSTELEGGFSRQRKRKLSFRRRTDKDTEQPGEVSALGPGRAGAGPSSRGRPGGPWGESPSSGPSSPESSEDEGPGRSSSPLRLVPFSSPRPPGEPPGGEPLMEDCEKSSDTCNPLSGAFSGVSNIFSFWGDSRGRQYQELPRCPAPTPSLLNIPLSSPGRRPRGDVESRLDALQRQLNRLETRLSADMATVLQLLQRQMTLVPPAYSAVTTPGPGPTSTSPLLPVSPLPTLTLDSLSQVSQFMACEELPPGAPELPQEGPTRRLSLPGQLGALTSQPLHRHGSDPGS
Chain of Tumor necrosis factor (P01375 whole entry): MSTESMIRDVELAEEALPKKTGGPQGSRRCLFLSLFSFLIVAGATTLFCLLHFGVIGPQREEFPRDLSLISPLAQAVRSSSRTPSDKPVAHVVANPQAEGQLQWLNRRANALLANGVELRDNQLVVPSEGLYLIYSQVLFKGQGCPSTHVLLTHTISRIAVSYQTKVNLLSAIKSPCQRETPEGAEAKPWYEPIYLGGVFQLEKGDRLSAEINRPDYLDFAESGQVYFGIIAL
Chain of ORAI1/STIM1 (Q96D31 whole entry): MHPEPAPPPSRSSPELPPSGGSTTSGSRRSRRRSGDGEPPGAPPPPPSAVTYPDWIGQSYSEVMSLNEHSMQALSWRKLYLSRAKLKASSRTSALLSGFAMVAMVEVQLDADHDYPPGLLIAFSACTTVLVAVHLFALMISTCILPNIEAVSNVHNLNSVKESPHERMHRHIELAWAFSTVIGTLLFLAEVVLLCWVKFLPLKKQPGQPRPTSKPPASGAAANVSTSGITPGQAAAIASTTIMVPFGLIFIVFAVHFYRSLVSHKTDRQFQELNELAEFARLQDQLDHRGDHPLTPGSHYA
Chain of ORAI1/STIM1 (Q13586 whole entry): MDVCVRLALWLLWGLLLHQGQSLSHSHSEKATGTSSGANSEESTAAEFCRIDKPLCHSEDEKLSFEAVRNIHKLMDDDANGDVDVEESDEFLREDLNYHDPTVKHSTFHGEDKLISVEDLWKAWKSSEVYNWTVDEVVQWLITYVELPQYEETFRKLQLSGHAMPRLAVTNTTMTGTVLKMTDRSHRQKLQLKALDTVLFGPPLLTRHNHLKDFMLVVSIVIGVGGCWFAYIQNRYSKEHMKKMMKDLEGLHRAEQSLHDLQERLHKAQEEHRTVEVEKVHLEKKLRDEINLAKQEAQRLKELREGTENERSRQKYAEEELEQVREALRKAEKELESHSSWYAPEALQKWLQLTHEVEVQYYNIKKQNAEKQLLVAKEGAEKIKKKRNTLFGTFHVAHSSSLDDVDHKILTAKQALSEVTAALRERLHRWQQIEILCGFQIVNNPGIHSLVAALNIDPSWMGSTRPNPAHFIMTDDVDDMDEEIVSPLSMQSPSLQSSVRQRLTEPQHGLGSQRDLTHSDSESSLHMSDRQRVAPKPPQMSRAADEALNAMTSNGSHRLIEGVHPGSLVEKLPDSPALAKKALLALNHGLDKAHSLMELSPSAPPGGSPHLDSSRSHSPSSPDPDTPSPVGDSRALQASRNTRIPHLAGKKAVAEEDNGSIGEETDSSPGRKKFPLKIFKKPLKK

Structure (SMILES): Cc1c(-c2ccc(NC(=O)c3c(F)cccc3F)cc2)cccc1-c1nn(C)c(=O)o1
Stability [1]: Stable | AUC(0-t) at 24 h [2]: 353 µM·h | AUC(0-t) at 24 h [3]: 7.1 µM·h | AUC(0-t) at 24 h [4]: 56 µM·h | Cmax [5]: 4000 nM | Tmax [6]: 4.8 min | Tmax [7]: 1 h | Vd [8]: 2.3 L/kg | bioavailability [9]: 79% | Stability [10]: Stable | Papp B→A at 2 h, 5 µM [11]: 6.2 ×10⁻⁶ cm/s | inhibition (INH) (Cytochrome P450 2E1): Not Active | Tmax [12]: 2 h | Tmax [13]: 2 h | Cmax [14]: 600 nM | Cmax [15]: 3300 nM | AUC(0-t) at 192 h [16]: 3.1 µM·h | AUC(0-t) at 192 h [17]: 8.3 µM·h | Tmax [18]: 2 h | Tmax [19]: 4 h | Cmax [20]: 600 nM | Cmax [21]: 2000 nM | Cmax [22]: 4500 nM | AUC(0-t) at 360 h [23]: 10 µM·h | AUC(0-t) at 360 h [24]: 36 µM·h | AUC(0-t) at 360 h [25]: 80 µM·h | Tmax [26]: 1 h | Tmax [27]: 2 h | Cmax [28]: 1600 nM | AUC(0-t) at 360 h [29]: 12 µM·h | AUC(0-t) at 360 h [30]: 13 µM·h | IC50 (ORAI1/STIM1): 76 nM | IC50 [31]: > 10000 nM | MTD [32]: 2000 mg/kg | MED [33]: 1 mg/kg | Cmax [34]: 2 µM and 843 ng/mL | AUC(0-t) [35]: 36 µM·h and 15200 ng·h/mL | MED [36]: 80 mg/kg | Cmax [37]: 530 ng/mL | Cmax [38]: 5440 ng/mL | AUC(0-t) at 336 h [39]: 76700 ng·h/mL | Cmax [40]: 4680 ng/mL | IC50 (Tumor necrosis factor): 694 nM | Cmax [41]: 1760 nM | concentration [42]: 403 nM | Cmax [43]: 1570 nM | Cmax [44]: 950 nM | concentration [45]: 185 nM

Stability [1]: Stable | AUC(0-t) at 24 h [2]: 167 µM·h | half-life [46]: 16 h | AUC(0-t) at 24 h [3]: 4 µM·h | AUC(0-t) at 24 h [4]: 44 µM·h | Cmax [5]: 4700 nM | Tmax [6]: 4.8 min | Tmax [7]: 1 h | Vd [8]: 2.3 L/kg | bioavailability [9]: 100% | Stability [10]: Stable | Papp B→A at 2 h, 5 µM [11]: 4.5 ×10⁻⁶ cm/s | inhibition (INH) (Cytochrome P450 2E1): Not Active
Structure (SMILES): Cc1c(-c2ccc(NC(=O)c3c(F)cccc3Cl)cc2)cccc1-c1nn(C)c(=O)o1
